Results published in patent publication US8383637B2, “2-amino-quinazoline derivatives useful as inhibitors of β-secretase (BACE)” (Jansssen Pharmaceutica N.V., priority 2004, dated 2013).

Target: T1, β-secretase(BACE) (Homo sapiens, UniProt P56817)
T1 construct: purchased Panvera
Experiment: BACE FS1% Inhibition Assay
Type: biochemical
Details: FS1 substrate
Method in brief: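 Percent inhibition at each tested concentration, referenced to enzyme-free blank and vehicle-only positive control. Reaction: compound and BACE (4 μg/mL working stock) mixed 20 min at room temperature before FS1 substrate (300 μg/mL working stock), then 1 h at room temperature.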

T1 sequence (P56817 46-501): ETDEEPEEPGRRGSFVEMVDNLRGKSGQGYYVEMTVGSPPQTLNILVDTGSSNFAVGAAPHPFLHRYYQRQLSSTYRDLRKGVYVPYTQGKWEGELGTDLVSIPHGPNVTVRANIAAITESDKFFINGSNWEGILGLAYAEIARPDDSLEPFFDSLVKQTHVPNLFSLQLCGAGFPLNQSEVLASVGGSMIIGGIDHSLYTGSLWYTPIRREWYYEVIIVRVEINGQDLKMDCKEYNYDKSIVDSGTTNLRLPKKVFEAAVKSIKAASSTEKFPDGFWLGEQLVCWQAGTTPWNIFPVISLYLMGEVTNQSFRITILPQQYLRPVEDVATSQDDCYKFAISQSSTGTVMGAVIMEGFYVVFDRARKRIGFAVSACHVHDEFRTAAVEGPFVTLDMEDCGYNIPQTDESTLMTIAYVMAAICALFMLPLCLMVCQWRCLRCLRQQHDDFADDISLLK

## NC1=Nc2ccc(Oc3ccccc3)cc2CN1C1CCN(C(=O)C2CCCCC2)CC1 [Compound 522]
0.3 μM test compound, read-out: % Inhibition (FS) 0.3 μM
  inhibition at 0.3 µM: < 30%
1 μM test compound, read-out: % Inhibition (FS) 1 μM
  inhibition at 1 µM: < 30%
3 μM test compound, read-out: % Inhibition (FS) 3 μM
  inhibition at 3 µM: 79%

## CCCC(CCC)C(=O)N1CCC(N2Cc3cc(Oc4ccccc4)ccc3N=C2N)CC1 [Compound 523]
0.3 μM test compound
  % Inhibition (FS) 0.3 μM: <30%
1 μM test compound
  % Inhibition (FS) 1 μM: <30%
3 μM test compound
  % Inhibition (FS) 3 μM: 58%

## NC1=Nc2ccc(Oc3ccccc3)cc2CN1C1CCN(C(=O)C23CC4CC(CC(C4)C2)C3)CC1 [Compound 524]
0.3 μM test compound
  % Inhibition (FS) 0.3 μM: <30%
1 μM test compound
  % Inhibition (FS) 1 μM: <30%
3 μM test compound
  % Inhibition (FS) 3 μM: 44%

## NC1=Nc2ccc(Oc3ccccc3)cc2CN1CC1CCN(C(=O)C2CCCCC2)CC1 [Compound 525]
0.3 μM test compound
  % Inhibition (FS) 0.3 μM: <30%
1 μM test compound
  % Inhibition (FS) 1 μM: <30%
3 μM test compound
  % Inhibition (FS) 3 μM: 70%

## CCCC(CCC)C(=O)N1CCC(CN2Cc3cc(Oc4ccccc4)ccc3N=C2N)CC1 [Compound 526]
0.3 μM test compound
  % Inhibition (FS) 0.3 μM: <30%
1 μM test compound
  % Inhibition (FS) 1 μM: 36%
3 μM test compound
  % Inhibition (FS) 3 μM: 98%

## NC1=Nc2ccc(Oc3ccccc3)cc2CN1CC1CCN(C(=O)C23CC4CC(CC(C4)C2)C3)CC1 [Compound 527]
0.3 μM test compound
  % Inhibition (FS) 0.3 μM: <30%
1 μM test compound
  % Inhibition (FS) 1 μM: <30%
3 μM test compound
  % Inhibition (FS) 3 μM: 51%

## CC(C)[C@@H](CNC(=O)C1CCCCC1)N1Cc2cc(Oc3ccccc3)ccc2N=C1N [Compound 528]
0.3 μM test compound
  % Inhibition (FS) 0.3 μM: <30%
1 μM test compound
  % Inhibition (FS) 1 μM: <30%
3 μM test compound
  % Inhibition (FS) 3 μM: 41%

## NC1=Nc2ccc(Oc3c(F)cccc3F)cc2CN1CCC(=O)NC1C2CC3CC(C2)CC1C3 (stereo not drawn) [Compound 529]
0.3 μM test compound
  % Inhibition (FS) 0.3 μM: <30%
1 μM test compound
  % Inhibition (FS) 1 μM: <30%
3 μM test compound
  % Inhibition (FS) 3 μM: 66%

## CC1CCN(C(=O)CCCC(CCC(=O)N2CCC(C)CC2)N2Cc3cc(Oc4ccccc4)ccc3N=C2N)CC1 (stereo not drawn) [Compound 532]
0.3 μM test compound
  % Inhibition (FS) 0.3 μM: <30%
1 μM test compound
  % Inhibition (FS) 1 μM: <30%
3 μM test compound
  % Inhibition (FS) 3 μM: 68%

## CS(=O)(=O)Nc1ccccc1-c1ccc2c(c1)CN(CCNC(=O)C1CCCCC1)C(N)=N2 [Compound 539]
0.3 μM test compound
  % Inhibition (FS) 0.3 μM: <30%
1 μM test compound
  % Inhibition (FS) 1 μM: <30%
3 μM test compound
  % Inhibition (FS) 3 μM: <30%

## CSc1ccccc1-c1ccc2c(c1)CN(CCNC(=O)C1CCCCC1)C(N)=N2 [Compound 540]
0.3 μM test compound
  % Inhibition (FS) 0.3 μM: <30%
1 μM test compound
  % Inhibition (FS) 1 μM: 30%
3 μM test compound
  % Inhibition (FS) 3 μM: 84%

## CC(=O)Nc1ccccc1-c1ccc2c(c1)CN(CCNC(=O)C1CCCCC1)C(N)=N2 [Compound 541]
0.3 μM test compound
  % Inhibition (FS) 0.3 μM: <30%
1 μM test compound
  % Inhibition (FS) 1 μM: <30%
3 μM test compound
  % Inhibition (FS) 3 μM: <30%

## CC(C)(C)NS(=O)(=O)c1ccccc1-c1ccc2c(c1)CN(CCNC(=O)C1CCCCC1)C(N)=N2 [Compound 542]
0.3 μM test compound
  % Inhibition (FS) 0.3 μM: <30%
1 μM test compound
  % Inhibition (FS) 1 μM: <30%
3 μM test compound
  % Inhibition (FS) 3 μM: 73%

## NC(=O)c1ccccc1-c1ccc2c(c1)CN(CCNC(=O)C1CCCCC1)C(N)=N2 [Compound 543]
0.3 μM test compound
  % Inhibition (FS) 0.3 μM: <30%
1 μM test compound
  % Inhibition (FS) 1 μM: <30%
3 μM test compound
  % Inhibition (FS) 3 μM: <30%

## NC1=Nc2ccc(-c3ccccc3-c3ccccc3)cc2CN1CCNC(=O)C1CCCCC1 [Compound 544]
0.3 μM test compound
  % Inhibition (FS) 0.3 μM: 32%
1 μM test compound
  % Inhibition (FS) 1 μM: <30%
3 μM test compound
  % Inhibition (FS) 3 μM: 51%

## CN(C(=O)c1cccc(CN2Cc3cc([S+]([O-])c4ccccc4)ccc3N=C2N)c1)C1CCCCC1 (stereo not drawn) [Compound 549]
0.3 μM test compound
  % Inhibition (FS) 0.3 μM: <30%
1 μM test compound
  % Inhibition (FS) 1 μM: 30%
3 μM test compound
  % Inhibition (FS) 3 μM: 71%

## NC1=Nc2ccc(Oc3ccccc3)cc2CN1C1CCCCN(C(=O)C23CC4CC(CC(C4)C2)C3)C1 (stereo not drawn) [Compound 550]
0.3 μM test compound
  % Inhibition (FS) 0.3 μM: <30%
1 μM test compound
  % Inhibition (FS) 1 μM: <30%
3 μM test compound
  % Inhibition (FS) 3 μM: 67%

## NC1=Nc2ccc(Oc3ccccc3)cc2CN1C1CCCCN(C(=O)C2CCCCC2)C1 (stereo not drawn) [Compound 551]
0.3 μM test compound
  % Inhibition (FS) 0.3 μM: <30%
1 μM test compound
  % Inhibition (FS) 1 μM: <30%
3 μM test compound
  % Inhibition (FS) 3 μM: <30%

## CCCC(CCC)C(=O)N1CCCCC(N2Cc3cc(Oc4ccccc4)ccc3N=C2N)C1 (stereo not drawn) [Compound 552]
0.3 μM test compound
  % Inhibition (FS) 0.3 μM: <30%
1 μM test compound
  % Inhibition (FS) 1 μM: <30%
3 μM test compound
  % Inhibition (FS) 3 μM: 36%

## CC(C)[C@@H](CNC(=O)C12CC3CC(CC(C3)C1)C2)N1Cc2cc(Oc3ccccc3)ccc2N=C1N [Compound 553]
0.3 μM test compound
  % Inhibition (FS) 0.3 μM: <30%
1 μM test compound
  % Inhibition (FS) 1 μM: <30%
3 μM test compound
  % Inhibition (FS) 3 μM: 49%

## CCCC(CNC(=O)C1CCCCC1)N1Cc2cc(Oc3ccccc3)ccc2N=C1N (stereo not drawn) [Compound 554]
0.3 μM test compound, 0.3 µM
  % Inhibition (FS) 0.3 μM: <30%
1 μM test compound, 1 µM
  % Inhibition (FS) 1 μM: <30%
3 μM test compound, 3 µM
  % Inhibition (FS) 3 μM: 42%

## CCCC(CNC(=O)C12CC3CC(CC(C3)C1)C2)N1Cc2cc(Oc3ccccc3)ccc2N=C1N (stereo not drawn) [Compound 555]
0.3 μM test compound, 0.3 µM
  % Inhibition (FS) 0.3 μM: <30%
1 μM test compound, 1 µM
  % Inhibition (FS) 1 μM: <30%
3 μM test compound, 3 µM
  % Inhibition (FS) 3 μM: 46%

## CN(C(=O)CCC(CO)N1Cc2cc(Oc3ccccc3)ccc2N=C1N)C1CCCCC1 (stereo not drawn) [Compound 557]
0.3 μM test compound
  % Inhibition (FS) 0.3 μM: <30%
1 μM test compound
  % Inhibition (FS) 1 μM: <30%
3 μM test compound
  % Inhibition (FS) 3 μM: <30%

## CN(C(=O)c1ncoc1C(Cc1ccccc1)N1Cc2cc(Oc3ccccc3)ccc2N=C1N)C1CCCCC1 (stereo not drawn) [Compound 559]
0.3 μM test compound
  % Inhibition (FS) 0.3 μM: <30%
1 μM test compound
  % Inhibition (FS) 1 μM: <30%
3 μM test compound
  % Inhibition (FS) 3 μM: <30%

## CC(C)C(CNC(=O)C12CC3CC(CC(C3)C1)C2)N1Cc2cc(Oc3ccccc3)ccc2N=C1N (stereo not drawn) [Compound 562]
0.3 μM test compound
  % Inhibition (FS) 0.3 μM: 106%
1 μM test compound
  % Inhibition (FS) 1 μM: 118%
3 μM test compound
  % Inhibition (FS) 3 μM: 128%

## N#Cc1cccc(C(=O)NCCN2Cc3cc(-c4cncnc4)ccc3N=C2N)c1 [Compound 567]
0.3 μM test compound
  % Inhibition (FS) 0.3 μM: <30%
1 μM test compound
  % Inhibition (FS) 1 μM: <30%
3 μM test compound
  % Inhibition (FS) 3 μM: <30%

## CCCC=Cc1ccc2c(c1)CN(CCNC(=O)c1cccc(C#N)c1)C(N)=N2 [Compound 568]
0.3 μM test compound
  % Inhibition (FS) 0.3 μM: <30%
1 μM test compound
  % Inhibition (FS) 1 μM: <30%
3 μM test compound
  % Inhibition (FS) 3 μM: <30%

## CCCC(=O)NCCN1Cc2cc(-c3cncnc3)ccc2N=C1N [Compound 569]
0.3 μM test compound
  % Inhibition (FS) 0.3 μM: <30%
1 μM test compound
  % Inhibition (FS) 1 μM: <30%
3 μM test compound
  % Inhibition (FS) 3 μM: <30%

## CCCC(=O)NCCN1Cc2cc(-c3ccncc3)ccc2N=C1N [Compound 570]
0.3 μM test compound
  % Inhibition (FS) 0.3 μM: <30%
1 μM test compound
  % Inhibition (FS) 1 μM: <30%
3 μM test compound
  % Inhibition (FS) 3 μM: <30%
